Consider three molecules from US20210046018A1 (priority 2019, published 2021).

Data set [1] concerns cultured trigeminal ganglion neurons. To be noted: caused by nerve growth factor exposure; cited from earlier work.
Data set [2] has as its system hindpaw incision. Conditions: topical, cited from earlier work.
Data set [3] deals with rat. The data set is described as follows: Orbital tightening (OT) after heptanol corneal abrasion injury, pre-clinical model of PRK. The class given is in vivo. Conditions: 24 hours post-injury; topical eye drops; FIG. 6B; abrasion increases OT scores. As to the method: A unilateral corneal injury was performed using topical application of heptanol. FIG. 3 is a diagram of a corneal abrasion method using topical application 310 of heptanol performed on an anesthetized rat. A local anesthetic was applied to the eye 320 via ophthalmic drops. A small metal ring 330 was then secured to the corneal surface with petroleum jelly. Heptanol (10 μL) 340 was placed inside the ring for 90 seconds, the heptanol was removed from inside the ring with a cotton swab and the eye is rinsed profusely with saline. The loose corneal epithelium was then removed with a cotton applicator 350. FIG. 4 is a graph representing of acute hyperalgesia after corneal abrasion injury, illustrating that this method induces photophobia as well as hyperalgesia to ocular application of menthol. This method produces abrasions of relatively uniform size and depth, in contrast to other mechanical abrasion methods.
In various embodiments, topical (ophthalmic) application of the compositions described herein can reduce or eliminate the hyperalgesia produced by corneal abrasion in a pre-clinical model of PRK. […]
Doses of trans-resveratrol up to 4% (corresponding to up to […] in 10 μL) were tested. […] Topical application is efficacious, because resveratrol is very lipophilic and should be readily taken up into the tear film that covers the surface of the eye. […]

The conditions of data set [4]: cited from earlier work.
In data set [5] the test system is sodium channels. To be noted: in vivo; cited from earlier work.
Data set [6] concerns corneal epithelium. The class given is in vivo, rat. To be noted: capsaicin application, FIG. 5C. The text has this:
Deeper wounds may remove the basement membrane and prevent reinnervation (at least in some strains of mice).

Structures are written as SMILES.

Turning to `Oc1ccc(C=Cc2cc(O)cc(O)c2)cc1` (racemic) [resveratrol], the hyperexcitability of neurons entry in data set [1] is “reduce hyperexcitability”. Moreover, in data set [2] (14-days after incision), the hyperalgesic priming entry is recorded as “prevents the full development”. In addition, the acute hyperalgesia entry in data set [2] (following hindpaw incision) was “attenuates”. Besides, the “orbital tightening (OT) scores” value in data set [3] is “dose-dependent trend for resveratrol to reverse this”.
For `NC1=N[C@H](O)[C@H]2[C@H]3O[C@]4(O)O[C@@H]([C@@H](O)[C@@]2(N1)[C@@H]4O)[C@]3(O)CO` [TTX, tetrodotoxin], the “solubility in tear film” value in data set [4] is on record as “not soluble in tear film”. The photophobia entry in data set [5] is “can reduce the photophobia”.
For the molecule `COc1cc(CNC(=O)CCCC/C=C/C(C)C)ccc1O` [capsaicin], the “overall epithelial structure (H&E stain)” value in data set [6] is “does not alter overall epithelial structure”.
